From paper PMC12606464, “Investigating NFE2L1 activators for targeted protein aggregate clearance: a follow-up study” (RSC Medicinal Chemistry, 2025)

Test system: NFE2L1-dependent gene expression
Assay: Quantitative RT-PCR of NFE2L1-dependent genes in HEK293 cells
Format: cell-based, human
Conditions: 7.5 μM, 16 h; for DNAJA1 mRNA, geometric mean (treatment) / HSPA1A mRNA, geometric mean (treatment) / NQO1 mRNA, geometric mean (treatment) / PSMC4 mRNA, geometric mean (treatment) / PSMD12 mRNA, geometric mean (treatment) / SQSTM1 mRNA, geometric mean (treatment): HEK293, normalized to RPLP0, DMSO control = 1; for DNAJA1 mRNA, geometric mean of ratios / HSPA1A mRNA, geometric mean of ratios / NQO1 mRNA, geometric mean of ratios / PSMC4 mRNA, geometric mean of ratios / PSMD12 mRNA, geometric mean of ratios / SQSTM1 mRNA, geometric mean of ratios: treatment/control, ratio paired t test, HEK293
Protocol: NFE2L1 enhances the transcription of genes encoding proteasome subunits and molecular chaperones such as heat shock proteins (HSPs). To evaluate whether this effect is elicited by RUN compounds, we performed quantitative real-time PCR (RT-qPCR) analysis in HEK293 cells treated with selected RUN compounds (Fig. 2A).[28,53–55]
Fig. 2 (A) qPCRs of HEK293 cells treated with RUN compounds (7.5 μM) for 16 hours. The extracted RNA was reverse transcribed into cDNA and utilized for RT-qPCR (primers are listed in the SI, Table S1); the mRNA levels of RPLP0 were used for normalization. The experiment was performed in three biological replicates (n = 3). (B) Immunoblot analysis of proteins NFE2L1/TCF11/NRF1, SQSTM1/p62, LC3, NQO1 and HSPA1A/HSP70-1 in HEK293 cells after 16 h treatment with 7.5 μM RUN compounds. The protein levels were quantified by measuring the integrated fluorescence of the corresponding protein bands and normalized to the β-actin load. The full-length (F) and cleaved (C) forms of NFE2L1 were analyzed together. The experiment was performed in four biological replicates (n = 4) except for NFE2L1 (n = 3). (A and B) Results of RUN compounds were compared to the DMSO control using ratio paired t-tests corrected for multiple comparisons with Holm–Šídák's method (α = 0.05). *p < 0.05, **p < 0.01. Detailed results of the analysis are shown in SI Tables S5 and S6. […]
HEK-293 cells were seeded into 12 -well plates and allowed to adhere overnight under standard culture conditions. On the following day, cells were treated with the indicated test compounds or DMSO vehicle control for 16 h. After treatment, cells were lysed directly in the wells, and the resulting lysates were collected for downstream RNA extraction. RNA was extracted using the RNeasy® Plus Micro Kit according to the manufacturer’s instructions. Complementary DNA (cDNA) was synthesized from RNA using either t he TATAA GrandScript cDNA Supermix (TATAA Biocenter) or the QuantiTect® Reverse Transcription Kit (Qiagen), following the respective protocols. Quantitative RT -PCR was performed on a LightCycler® 480 instrument (Roche Life Science) using the TATAA SYBR® Gr andMaster® Mix (TATAA […]
Biocenter). Gene expression levels were normalized to RPLP0, and relative expression was calculated using the ΔΔCt method. Data were expressed as fold change relative to the corresponding DMSO control. Statistical analysis of changes in gene expression was performed w ith a ratio paired t-test corrected for multiple comparisons using Holm-Šídák's method (α = 0.05) in GraphPad Prism (v 10.6.1).
Table S1. Sequences of primer pairs used in the qRT -PCR analysis of gene expression.

| Compound | DNAJA1 mRNA, geometric mean (treatment) | HSPA1A mRNA, geometric mean (treatment) | NQO1 mRNA, geometric mean (treatment) | PSMC4 mRNA, geometric mean (treatment) | PSMD12 mRNA, geometric mean (treatment) | SQSTM1 mRNA, geometric mean (treatment) | DNAJA1 mRNA, geometric mean of ratios | HSPA1A mRNA, geometric mean of ratios | NQO1 mRNA, geometric mean of ratios | PSMC4 mRNA, geometric mean of ratios | PSMD12 mRNA, geometric mean of ratios | SQSTM1 mRNA, geometric mean of ratios |
| --- | --- | --- | --- | --- | --- | --- | --- | --- | --- | --- | --- | --- |
| COc1ccc(/C=C2\CC(N)C/C(=C\c3ccc(OC)c(OC)c3)C2=O)cc1OC (centres unmarked) [RUN-81] | 3.68 | 8.57 | 2.23 | 4.76 | 3.37 | 4.15 | 3.68 | 8.57 | 2.23 | 4.76 | 3.37 | 4.15 |
| COc1ccc(/C=C2\CC(NC(=O)C3CCCC3)C/C(=C\c3ccc(OC)c(OC)c3)C2=O)cc1OC (centres unmarked) [RUN-89] | 7.60 | 8.85 | 2.73 | 2.21 | 5.14 | 5.22 | 7.60 | 8.85 | 2.73 | 2.21 | 5.14 | 5.22 |
| COc1ccc(/C=C2\CC(NC(=O)c3ccccn3)C/C(=C\c3ccc(OC)c(OC)c3)C2=O)cc1OC (centres unmarked) [RUN-94] | 6.57 |  | 2.85 | 1.37 | 4.22 | 6.10 | 6.57 | 8.20 | 2.85 | 1.37 | 4.22 | 6.10 |
